Measured values taken from patent US20220213061A9, “HETEROCYCLIC COMPOUNDS FOR MODULATING NR2F6” (TES Pharma S.r.l., priority 2020, published 2022).
pEC50: −log10 of the molar value. Structures can show the parent of a compound that is named as a salt.

Target: T1, recombinant human NR2F6 protein (Homo sapiens, UniProt P10588)
T1 sequence (P10588 1-404): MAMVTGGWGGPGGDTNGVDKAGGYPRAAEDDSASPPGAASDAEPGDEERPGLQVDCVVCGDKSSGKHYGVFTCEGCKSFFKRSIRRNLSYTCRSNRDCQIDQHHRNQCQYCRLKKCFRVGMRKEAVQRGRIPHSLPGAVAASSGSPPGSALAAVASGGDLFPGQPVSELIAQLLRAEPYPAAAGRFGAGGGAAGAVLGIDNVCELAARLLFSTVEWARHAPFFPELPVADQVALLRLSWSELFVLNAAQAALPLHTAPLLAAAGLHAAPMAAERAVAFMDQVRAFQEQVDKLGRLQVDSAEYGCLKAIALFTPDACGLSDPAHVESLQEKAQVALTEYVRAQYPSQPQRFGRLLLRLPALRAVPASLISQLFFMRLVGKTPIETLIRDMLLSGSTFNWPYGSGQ
Experiment: Biochemical NR2F6 binding assay (EnSpire label-free)
Conditions: label-free binding to immobilized purified recombinant human NR2F6; ligands 1 nM to 100 uM, 1% DMSO
Procedure: Purified recombinant human NR2F6 protein was dissolved in immobilization buffer at pH 4.5 and then immobilized in EnSpire-LFB High-Sensitivity User-Activated Plates at the concentration of 50 μg/well plate and left in incubation for 16 h at 4° C. Wells with only immobilization buffer were used as negative control to check the protein coating efficiency. NR2F6 ligands were resuspended in DMSO at the concentration of 10 mM, then dispensed into a plate containing assay buffer at concentrations ranging from 1 nM to 100 uM using an HP-dispenser. DMSO was normalized at the 1% of volume of each well. The final readings were taken over a period of 30 minutes. The label-free responses were measured as shifts in reflected wavelength and are expressed in picometers (pm). Results were analyzed using the EnSpire label-free user interface software, and EC50 and graphs were generated using GraphPad PRISM software. In the tables below, A is <1 μM; B is 1 to 10 μM; C is 10 to 50 μM; and D is >50 μM.

Row | pEC50 | SMILES
1 | < 4.30 | O=C(Nc1cccc2ocnc12)[C@H]1CNC[C@@H]1c1ccccc1 (racemic) [Compound I-76, (±)-trans-N-(1,3-Benzoxazol-4-yl)-4-phenylpyrrolidine-3-carboxamide dihydrochloride]
2 | 5.00 to 6.00 | O=C(Nc1ccccc1Oc1cccnc1)[C@H]1CNC[C@@H]1c1ccccc1 (racemic) [Compound I-68, (±)-trans-4-Phenyl-N-[2-(pyridin-3-yloxy)phenyl]pyrrolidine-3-carboxamide dihydrochloride]
3 | < 4.30 | O=C(Nc1ccc(Nc2cccnc2)cc1)[C@H]1CNC[C@@H]1c1ccccc1 (racemic) [Compound I-107, (±)-trans-4-Phenyl-N-[4-(pyridin-3-ylamino)phenyl]pyrrolidine-3-carboxamide dihydrochloride]
4 | 5.00 to 6.00 | Cc1ccc(O[C@H]2C[C@H](NC(=O)[C@@H]3CNC[C@H]3c3ccccc3)C2)cc1 (racemic) [Compound I-115, (±)-trans-N-[trans-3-(4-Methylphenoxy)cyclobutyl]-4-phenylpyrrolidine-3-carboxamide hydrochloride]
5 | 5.00 to 6.00 | O=C(Nc1ncc(-c2cccnc2)s1)[C@@H]1CNC[C@H]1c1ccccc1 (racemic) [Compound I-20, (±)-trans-4-Phenyl-N-[5-(pyridin-3-yl)-1,3-thiazol-2-yl]pyrrolidine-3-carboxamide]
6 | < 4.30 | COc1ccc([C@@H]2CNC[C@H]2C(=O)Nc2cccc(-c3ccccc3)c2)cc1 (racemic) [Compound I-45, (±)-trans-N-(Biphenyl-3-yl)-4-(4-methoxyphenyl)pyrrolidine-3-carboxamide hydrochloride]
7 | 5.00 to 6.00 | O=C(Nc1ccc(C2CCCCC2)cc1)[C@@H]1CNC[C@H]1c1ccccc1 (racemic) [Compound I-87, (±)-trans-N-(4-Cyclohexylphenyl)-4-phenylpyrrolidine-3-carboxamide hydrochloride]
8 | 5.00 to 6.00 | O=C(Nc1cccc2cnccc12)[C@H]1CNC[C@H]1c1ccccc1 [Compound I-88, (3R,4R)—N-(Isoquinolin-5-yl)-4-phenylpyrrolidine-3-carboxamide dihydrochloride]
9 | > 6.00 | O=C(Nc1cccc(-c2cccnc2)c1)[C@@H]1CN(c2ccccc2)C[C@H]1c1ccccc1 (racemic) [Compound I-62, (±)-trans-1,4-Diphenyl-N-[3-(pyridin-3-yl)phenyl]pyrrolidine-3-carboxamide]
10 | < 4.30 | c1ccc([C@H]2CNC[C@@H]2OCc2cccc3cnccc23)cc1 (racemic) [Compound I-73, 5-({[(±)-trans-4-Phenylpyrrolidin-3-yl]oxy}methyl)isoquinoline dihydrochloride]
11 | > 6.00 | N#Cc1ccc(Oc2cccc(NC(=O)[C@@H]3CNC[C@H]3c3ccccc3)c2)cc1 [Compound I-112, (3S,4R)—N-[3-(4-Cyanophenoxy)phenyl]-4-phenylpyrrolidine-3-carboxamide hydrochloride]
12 | < 4.30 | CN(C(=O)[C@@H]1CNC[C@H]1c1ccccc1)c1cccc(-c2cccnc2)c1 (racemic) [Compound I-47, (±)-trans-N-Methyl-4-phenyl-N-[3-(pyridin-3-yl)phenyl]pyrrolidine-3-carboxamide]
13 | < 4.30 | O=C(Nc1cccc2cnccc12)[C@H]1CNC[C@@H]1c1nccs1 [Compound I-58, (3R,4R)—N-(Isoquinolin-5-yl)-4-(1,3-thiazol-2-yl)pyrrolidine-3-carboxamide dihydrochloride]
14 | < 4.30 | O=C(Nc1cccc(-c2cncnc2)c1)[C@@H]1CNC[C@H]1c1ccccc1 (racemic) [Compound I-53, (±)-trans-4-Phenyl-N-[3-(pyrimidin-5-yl)phenyl]pyrrolidine-3-carboxamide trihydrochloride]
15 | 5.00 to 6.00 | O=C(Nc1cccc(Oc2ccc(C(F)(F)F)nc2)c1)[C@@H]1CNC[C@H]1c1ccccc1 [Compound I-120, (3S,4R)-4-Phenyl-N-(3-{[6-(trifluoromethyl)pyridin-3-yl]oxy}phenyl) pyrrolidine-3-carboxamide dihydrochloride]
16 | < 4.30 | O=C(Nc1cccc2cnccc12)[C@H]1CNC[C@@H]1c1ccc(C(F)(F)F)cc1 [Compound I-82, (3R,4S)-4-(4-Trifluorophenyl)-N-(isoquinolin-5-yl)pyrrolidine-3-carboxamide dihydrochloride]

Row | pEC50 | SMILES
17 | < 4.30 | O=C(Nc1cccc(Oc2ccncc2)c1)[C@H]1CNC[C@@H]1c1ccccc1 (racemic) [Compound I-98, (±)-trans-4-Phenyl-N-[3-(pyridin-4-yloxy)phenyl]pyrrolidine-3-carboxamide dihydrochloride]
18 | < 4.30 | O=C(Nc1cccc(Oc2cccnc2)c1)[C@@H]1CNC[C@H]1c1ccccc1 (racemic) [Compound I-52, dihydrochloride]
19 | > 6.00 | O=C(Nc1cccc(Nc2ccccc2)c1)[C@H]1CNC[C@@H]1c1ccccc1 (racemic) [Compound I-89, (±)-trans-4-Phenyl-N-[3-(phenylamino)phenyl]pyrrolidine-3-carboxamide hydrochloride]
20 | 5.00 to 6.00 | O=C(Nc1cccc2ccccc12)[C@@H]1CNC[C@H]1c1ccc(C(F)(F)F)cc1 [Compound I-110, (3S,4R)—N-(Naphthalen-1-yl)-4-[4-(trifluoromethyl)phenyl]pyrrolidine-3-carboxamide hydrochloride]
21 | 5.00 to 6.00 | O=C(Nc1cccc2ccccc12)[C@H]1CNC[C@@H]1c1ccccc1 [Compound I-74, (3R,4S)—N-(Naphthalen-1-yl)-4-phenylpyrrolidine-3-carboxamide hydrochloride]
22 | < 4.30 | Cn1ccc2c(NC(=O)[C@H]3CNC[C@@H]3c3ccccc3)cccc2c1=O [Compound I-84, (3R,4S)—N-(2-Methyl-1-oxo-1,2-dihydroisoquinolin-5-yl)-4-phenylpyrrolidine-3-carboxamide hydrochloride]
23 | < 4.30 | CN(C(=O)[C@H]1CNC[C@@H]1c1ccccc1)c1cccc2cnccc12 [Compound I-57, (3R,4S)—N-(Isoquinolin-5-yl)-N-methyl-4-phenylpyrrolidine-3-carboxamide dihydrochloride]
24 | < 4.30 | c1ccc([C@H]2CNC[C@@H]2Nc2nc3cnccc3s2)cc1 (racemic) [Compound I-10, (±)-trans-N-[4-Phenylpyrrolidin-3-yl][1,3]thiazolo[4,5-c]pyridin-2-amine hydrochloride]
25 | 5.00 to 6.00 | O=C(Nc1cccc(Nc2ccccc2)c1)[C@@H]1CNC[C@H]1c1ccccc1 [Compound I-114, (3S,4R)-4-Phenyl-N-[3-(phenylamino)phenyl]pyrrolidine-3-carboxamide hydrochloride]
26 | 5.00 to 6.00 | c1ccc([C@@H]2CNC[C@H]2Oc2nc(-c3cccnc3)cs2)cc1 (racemic) [Compound I-5, (±)-trans-3-{2-[(4-Phenylpyrrolidin-3-yl)oxy]-1,3-thiazol-4-yl}pyridine]
27 | 5.00 to 6.00 | S=C(Nc1cccc2cnccc12)N[C@@H]1CN(Cc2ccccc2)C[C@H]1c1ccccc1 (racemic) [Compound I-6, (±)-trans-1-Isoquinolin-5-yl-3-(1-benzyl-4-phenylpyrrolidin-3-yl)thiourea]
28 | < 4.30 | O=C(N[C@H]1CC[C@H](O)CC1)[C@H]1CNC[C@@H]1c1ccccc1 [Compound I-36, (3R,4S)—N-[(1,4-trans)-4-Hydroxycyclohexyl]-4-phenylpyrrolidine-3-carboxamide hydrochloride]
29 | 4.30 to 5.00 | O=C(Nc1cccc2cccnc12)[C@@H]1CNC[C@H]1c1ccccc1 (racemic) [Compound I-18, (±)-trans-4-Phenyl-N-(quinolin-8-yl)pyrrolidine-3-carboxamide dihydrochloride]
30 | 5.00 to 6.00 | O=C(Nc1cc2ccccc2cn1)[C@@H]1CNC[C@H]1c1ccccc1 [Compound I-43, (3S,4R)—N-(Isoquinolin-3-yl)-4-phenylpyrrolidine-3-carboxamide dihydrochloride]
31 | < 4.30 | O=C(Nc1cccc2cnccc12)[C@@H]1CNC[C@H]1c1cccs1 [Compound I-56, (3S,4S)—N-(Isoquinolin-5-yl)-4-(thiophen-2-yl)pyrrolidine-3-carboxamide]
32 | 5.00 to 6.00 | O=C(Nc1ccc(-c2ccccc2)cc1)[C@@H]1CNC[C@H]1c1ccccc1 (racemic) [Compound I-24, (±)-trans-N-(Biphenyl-4-yl)-4-phenylpyrrolidine-3-carboxamide hydrochloride]

Row | SMILES | pEC50
33 | O=C(Nc1cccc2cnccc12)[C@H]1CNC[C@@H]1c1ccc(F)cc1 [Compound I-81, (3R,4S)-4-(4-Fluorophenyl)-N-(isoquinolin-5-yl)pyrrolidine-3-carboxamide dihydrochloride] | < 4.30
34 | O=C(c1cccc2cnccc12)[C@H]1CNC[C@@H]1c1ccccc1 (racemic) [Compound I-100, (±)-trans Isoquinolin-5-yl[(3S,4R)-4-phenylpyrrolidin-3-yl]methanone dihydrochloride] | 5.00 to 6.00
